The results in this text go back to ChEMBL document CHEMBL1201862, “PubChem BioAssay data set” (2004).

Holding throughout (experiment): NCI anticancer screen, dose series, 48 h
Assay [1] has as its system HT-29.
Assay [2] concerns HCC 2998.
Assay [3] relates to SNB-19.
Assay [4] concerns NCI-H522.
Assay [5] deals with Malme-3M.
Assay [6] relates to U-251.
Assay [7] has as its system HCT-116.
Assay [8] concerns NCI-H460.
The test system of assay [9] is NCI-H23.
Assay [10] relates to MCF7.
Assay [11] concerns HL-60.
The subject of assay [12] is SNB-75.
Assay [13] has as its system TK-10.
Assay [14] concerns A498.
The test system of assay [15] is SK-MEL-5.
Assay [16] has as its system UO-31.
Assay [17] concerns SF-539.
The test system of assay [18] is HOP-62.
Assay [19] has as its system SF-295.
For assay [20], the system named is SK-MEL-2.

Molecules are shown by their SMILES.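 Grown in 96-well plates, cells were treated for 48 hours with each compound at five concentrations. Insufficient inhibition: endpoint recorded as highest concentration tested. The concentration for 50% growth inhibition is given as GI50.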 Active and inactive are the calls of the source. Rule as the data show it: active = GI50 up to about 1.1 µM and inactive = higher. A value given as a limit tells only on which side of the number the result lay.

In the case of `COCOc1ccc(C(=O)C(C)c2ccc(OCOC)cc2OCOC)c(O)c1` (stereo not given), the GI50 is > 100 µM (inactive) in [1]; > 100 µM (inactive) in assay [2]; > 100 µM (inactive) in assay [3]; 41.5 µM (inactive) in assay [4]; > 100 µM (inactive) in [5]; > 100 µM (inactive) in assay [6]. Moreover, the GI50 in [7] is > 100 µM (inactive); in assay [8], > 100 µM (inactive); in assay [9], 60.8 µM (inactive); in [10] it was 68.2 µM (inactive); in assay [11], 30.9 µM (inactive); in assay [12] it was 33.5 µM (inactive). The GI50 in [13] is > 100 µM (inactive); in [14], > 100 µM (inactive); in [15], 37 µM (inactive); in [16], 33.2 µM (inactive); in assay [17] it was > 100 µM (inactive); in assay [18] it was > 100 µM (inactive).

On to `N=C(N)C1CN(CCc2c[nH]cn2)C(=O)NC1=O` (stereo not given), for which the GI50 in assay [1] is > 100 µM (inactive); in [2], > 100 µM (inactive); in assay [3] it was > 100 µM (inactive); in assay [4] it was > 100 µM (inactive); in assay [5] it was 36 µM (inactive); in [6] it was > 100 µM (inactive). In addition, the GI50 in [7], in assay [8], in [9], in [10], in assay [11] and in [12] was > 100 µM (inactive) each time. In addition, the GI50 in assay [19], in [13], in [14], in [15], in [16] and in assay [17] was > 100 µM (inactive) in each case. The GI50 in [18] is > 100 µM (inactive).

Consider `Cc1ccc2oc(=O)c(C(=O)Nc3nc(C45CC6CC(CC(C6)C4)C5)cs3)cc2c1`, for which the GI50 in assay [1], in assay [2], in [3], in [4], in [5] and in [6] was > 100 µM (inactive) each time. The GI50 in assay [7], in [8], in [9], in assay [10], in [11] and in assay [12] was > 100 µM (inactive) throughout. Further, the GI50 in assay [19], in [14], in assay [15], in assay [16], in [17] and in [18] was > 100 µM (inactive) throughout.

For the molecule `Cc1ccccc1NC(=S)N/N=C(/c1ccccc1)c1ccccn1`, the GI50 was < 0.0182 µM (active) in [1]; 3.22 µM (inactive) in assay [2]; 1.62 µM (inactive) in assay [3]; 0.0902 µM (active) in assay [4]; < 0.01 µM (active) in [6]; 3.36 µM (inactive) in assay [20]. The GI50 in assay [7] is < 0.01 µM (active); in assay [8], 0.0702 µM (active); in [9] it was < 0.01 µM (active); in assay [10], 0.0215 µM (active); in assay [11], < 0.0736 µM (active); in assay [12], 0.933 µM (active). Further, the GI50 in assay [19] was 0.0883 µM (active); in assay [13], < 0.0295 µM (active); in [14], 0.398 µM (active); in assay [15], 0.0664 µM (active); in [16], 0.0266 µM (active); in assay [17], 0.384 µM (active). For the same molecule, in assay [18], the GI50 is 0.0331 µM (active).

Take `O=[N+]([O-])/C(Cl)=C/C(=C1/Nc2ccccc2O1)[N+](=O)[O-]`: the GI50 in assay [1] is 32.8 µM (inactive); in assay [2] it was 14.6 µM (inactive); in [3], 17.4 µM (inactive); in assay [4] it was 13.5 µM (inactive); in assay [5] it was 14.3 µM (inactive); in assay [6] it was 12.8 µM (inactive). Moreover, the GI50 in assay [7] was 13.9 µM (inactive); in assay [8] it was 31.5 µM (inactive); in [9], 17.8 µM (inactive); in assay [10], 29.6 µM (inactive); in assay [11], 11.6 µM (inactive); in assay [12] it was 14.1 µM (inactive). For the same molecule, the GI50 is 26.7 µM (inactive) in [19]; 44.1 µM (inactive) in assay [13]; 19 µM (inactive) in [14]; 22.2 µM (inactive) in assay [15]; 15.7 µM (inactive) in assay [16]; 15.5 µM (inactive) in [17]. Moreover, the GI50 in assay [18] is 33.7 µM (inactive).

For the molecule `CC1=CCCC(C)(O)C2CC(CCC3(C)OC3CC1)C(C)C(=O)O2` (stereo not given), the GI50 in assay [1], in assay [2], in [3], in assay [4], in assay [5] and in [6] was > 100 µM (inactive) each time. For the same molecule, the GI50 in [20], in assay [7], in assay [8], in assay [9], in assay [10] and in [11] was > 100 µM (inactive) throughout. The GI50 in [12], in assay [19], in [13], in [14], in assay [15] and in assay [16] was > 100 µM (inactive) each time. Moreover, in assay [17], the GI50 is > 100 µM (inactive).

For the molecule `Cc1cc2c(c(C)c1O)C(C)(C)CN2C(=O)C(C)(C)C`, the GI50 was 57 µM (inactive) in assay [1]; > 100 µM (inactive) in [2]; > 100 µM (inactive) in assay [3]; > 100 µM (inactive) in assay [4]; > 100 µM (inactive) in assay [6]; 84.7 µM (inactive) in assay [7]. In addition, the GI50 in assay [8] is > 100 µM (inactive); in assay [9], 42.5 µM (inactive); in assay [10] it was > 100 µM (inactive); in assay [11], 77.4 µM (inactive); in assay [12], 28 µM (inactive); in assay [19], > 100 µM (inactive). In addition, the GI50 in assay [13] was > 100 µM (inactive); in assay [14] it was 66.7 µM (inactive); in assay [15] it was 25.1 µM (inactive); in assay [16], 74.5 µM (inactive); in assay [17] it was > 100 µM (inactive); in [18], > 100 µM (inactive).

In the case of `NCCNC(=S)S`, the GI50 in assay [1] was 85.9 µM (inactive); in assay [2], > 100 µM (inactive); in [3] it was > 100 µM (inactive); in [4], 3.48 µM (inactive); in assay [5], 11.9 µM (inactive); in [6], > 100 µM (inactive). Moreover, the GI50 in [20] was > 100 µM (inactive); in assay [7] it was > 100 µM (inactive); in assay [9], > 100 µM (inactive); in [10] it was > 100 µM (inactive); in assay [11], 44.7 µM (inactive); in assay [12], > 100 µM (inactive). For the same molecule, the GI50 in [19], in [13], in assay [14], in [15], in [16] and in [18] was > 100 µM (inactive) in each case.

`CN(C)CCNC(=O)c1ccc2nc3c(nc2c1)C(=O)c1ccccc1-3`: the GI50 was 26.4 µM (inactive) in assay [1]; 86.9 µM (inactive) in assay [2]; 77.3 µM (inactive) in assay [3]; 30.9 µM (inactive) in assay [4]; 25.2 µM (inactive) in assay [5]; 24.2 µM (inactive) in [6]. Also, the GI50 was 45.9 µM (inactive) in assay [7]; 18.5 µM (inactive) in assay [8]; 48.5 µM (inactive) in [9]; 27.9 µM (inactive) in [10]; 19.1 µM (inactive) in [11]; 30.5 µM (inactive) in assay [12]. Also, the GI50 is 65.6 µM (inactive) in assay [19]; > 100 µM (inactive) in assay [13]; > 100 µM (inactive) in assay [14]; 17.9 µM (inactive) in assay [15]; 40.6 µM (inactive) in [16]; 60.8 µM (inactive) in assay [17]. For the same molecule, the GI50 in assay [18] is 29 µM (inactive).

As for `Cc1nn(C)c2nc3ccc(Cl)cc3c(-c3ccccc3)c12`, the GI50 in assay [1], in [2], in assay [3], in [4], in assay [5] and in assay [6] was > 100 µM (inactive) in each case. Also, the GI50 in assay [20], in [7], in assay [8], in assay [9], in assay [10] and in assay [11] was > 100 µM (inactive) in each case. Further, the GI50 in assay [12], in assay [19], in assay [14], in assay [16], in assay [17] and in [18] was > 100 µM (inactive) throughout.
